Laboratory results as given in US6359196B1, “Germination-specific plant promoters” (priority 1999, dated 2002).

What was measured:
[1] = test system: barley cystatin-1 gene promoter; test: Transient expression in barley aleurone protoplasts, cys1 promoter deletion constructs fused to β-glucuronidase, normalised to luciferase; type: cell-based; details: 1 μM phytohormone, 40-hour incubation at 20° C.; β-glucuronidase activity divided by luciferase activity
Description: Barley aleurone protoplasts were prepared as described in Example 4, and separate protoplast aliquots were co-transfected with plasmid pAHC18 carrying the luciferase gene under control of the gene promoter derived from a constitutively expressed maize ubitiquitin gene (Bruce et al., 1989, Proc. Natl. Acad. Sci. USA 86:9692-9696), and one of the eight expression plasmids containing 5' deletions of the cystatin-1 gene promoter, as described above. The molar concentration of pAHC 18 was half of that of the reporter plasmid directing expression of β-glucuronidase. Incubation of the protoplasts with 1 μM gibberellic acid or 1 μM abscisic acid were performed in order to analyse possible, regulative effects of the phytohormones on […] gene expression, and identify the location of possible hormone responsive cis-acting gene elements. After a 40-hour incubation at 20° C., the protoplasts were harvested and the level of β-glucuronidase and luciferase activities determined as described by Leah et al. (1994, supra). The relative β-glucuronidase activity in individual samples was calculated by dividing the measured activity by the measured luciferace activity, thereby allowing differences in transformation efficiency to be corrected for.

[2] = test system: barley α-glucosidase gene promoter; test: Transient expression in barley aleurone protoplasts, constructs with the α-glucosidase gene promoter; type: cell-based; details: protoplasts incubated in the presence of gibberellic acid, 25° C., 40 hours
Text: It is possible to evaluate the expression levels directed by the barley α-glucosidase gene promoter by several methods. One such method is by transient expression assays performed with protoplasts prepared from aleurone layers of the barley cultivar Himalaya. This approach is not only used to evaluate the ability of different promoters to function in barley endosperm-derived tissues, including the aleurone tissue, but also to determine whether an expressed protein is secreted from the plant cell or whether the protein remains in the cell cytoplasm.
Protoplasts are transfected with a gene cassette of interest and incubated to allow the introduced gene to be expressed, and the corresponding protein allowed to accumulate in the cell or in the surrounding liquid medium. Following incubation at 25° C. for 40 hours in the presence or absence of gibberellic acid, the cells and the growth medium are assayed for the presence of the protein encoded by the transgene in order to determine the efficiency of the promoter which drives transgene expression.
A protocol for the preparation and transfection of barley aleurone protoplasts has been published by Skriver et al., (1991, supra). […]

| SMILES | relative expression of β-glucuronidase [1] | activity derived from heterologously expressed enzymes [2] |
| --- | --- | --- |
| CC1=CC(=O)CC(C)(C)[C@@]1(O)/C=C/C(C)=C\C(=O)O [abscisic acid] | increased |  |
| C=C1C[C@]23C[C@@]1(O)CC[C@H]2[C@@]12C=C[C@H](O)[C@@](C)(C(=O)O1)[C@H]2[C@@H]3C(=O)O [gibberellic acid] | slight depression | enhanced levels of activity |
